Test system: RAW264.7 cell line
Experiment: Boyden chamber (transwell) macrophage migration versus chemoattractant concentration, retroreflection-based cytometry
Type: cell-based, rat
Conditions: 24 hours migration
Procedure: Experimental Example 3 was conducted to verify that the RAW264.7 cell line cultured in the transwell (the first chamber) coated with the retroreflective particles migrated under influence of monocytechemoattractant protein-1 (MCP-1) as the chemoattractant present in the lower chamber (second chamber), and migrated to the bottom substate of the well plate (the second chamber). In this example, DMEM (Dulbeccos Modified Eagles Medium) was used as the serum-free culture medium in the upper chamber. The culture medium in the lower chamber was composed of 1 ng/ml MCP-1, 10% Fetal Bovine Serum (FBS), and 1% Penicillin streptomycin (PS) based on DMEM (Dulbeccos Modified Eagles Medium). After the first chamber and the second chamber were combined with each other, the cell migration time was specified for 24 hours to observe the cell migration, and the cell migration was observed while culturing the cells in a cell incubator.
In Experimental Example 4, an experiment was conducted to verify whether the novel developed retroreflection-based cytometry can be used for an evaluation of cell migration dependence on the concentration of the chemoattractant as used in general cell migration analysis. The MCP-1 introduced into the well plate (the second chamber) was added into the culture medium at a concentration of each of 0, 1, 10, and 100 ng/ml. […]

Q: With “monocytechemoattractant protein-1 [MCP-1]” as the substance, how does the “number of migrated cells” value (100 ng/ml MCP-1 compared to each of 1 and 10 ng/ml) read?
A: reduced

Q: And the “number of migrated cells” value (MCP-1 concentration increased from 0 to 10 ng/ml)?
A: increased

— patent US12117387B2, “Biosensor, method for manufacturing the same, and analysis method using the same” (AJOU UNIVERSITY INDUSTRY-ACADEMIC COOPERATION FOUNDATION, priority 2020, dated 2024)
